This is an account of results in publication PMC12802110, “Biochemical characterization of the full-length isoform of soluble adenylyl cyclase” (The Journal of Biological Chemistry, 2025).

In test [1] the test system is mouse and human sACfl and sACt. Briefly: In vitro adenylyl cyclase activity assay, one result stated for all four sAC proteins. To be noted: for inhibition of cyclase activity at 10 mM: 10 mM test substance. Format: biochemical.
For another test, the target named is T1, human sACfl (Homo sapiens, UniProt Q96PN6).
T1 construct: Schematic of full-length (sACfl) and truncated (sACt) sAC isoforms; eGFP (C, cleaved yes); His-tag (on eGFP) (C, cleaved yes); PreScission protease site (C); made in house; host or cells: Expi293 cells
T1 sequence (Q96PN6 whole entry, the tested form may be a part, canonical isoform): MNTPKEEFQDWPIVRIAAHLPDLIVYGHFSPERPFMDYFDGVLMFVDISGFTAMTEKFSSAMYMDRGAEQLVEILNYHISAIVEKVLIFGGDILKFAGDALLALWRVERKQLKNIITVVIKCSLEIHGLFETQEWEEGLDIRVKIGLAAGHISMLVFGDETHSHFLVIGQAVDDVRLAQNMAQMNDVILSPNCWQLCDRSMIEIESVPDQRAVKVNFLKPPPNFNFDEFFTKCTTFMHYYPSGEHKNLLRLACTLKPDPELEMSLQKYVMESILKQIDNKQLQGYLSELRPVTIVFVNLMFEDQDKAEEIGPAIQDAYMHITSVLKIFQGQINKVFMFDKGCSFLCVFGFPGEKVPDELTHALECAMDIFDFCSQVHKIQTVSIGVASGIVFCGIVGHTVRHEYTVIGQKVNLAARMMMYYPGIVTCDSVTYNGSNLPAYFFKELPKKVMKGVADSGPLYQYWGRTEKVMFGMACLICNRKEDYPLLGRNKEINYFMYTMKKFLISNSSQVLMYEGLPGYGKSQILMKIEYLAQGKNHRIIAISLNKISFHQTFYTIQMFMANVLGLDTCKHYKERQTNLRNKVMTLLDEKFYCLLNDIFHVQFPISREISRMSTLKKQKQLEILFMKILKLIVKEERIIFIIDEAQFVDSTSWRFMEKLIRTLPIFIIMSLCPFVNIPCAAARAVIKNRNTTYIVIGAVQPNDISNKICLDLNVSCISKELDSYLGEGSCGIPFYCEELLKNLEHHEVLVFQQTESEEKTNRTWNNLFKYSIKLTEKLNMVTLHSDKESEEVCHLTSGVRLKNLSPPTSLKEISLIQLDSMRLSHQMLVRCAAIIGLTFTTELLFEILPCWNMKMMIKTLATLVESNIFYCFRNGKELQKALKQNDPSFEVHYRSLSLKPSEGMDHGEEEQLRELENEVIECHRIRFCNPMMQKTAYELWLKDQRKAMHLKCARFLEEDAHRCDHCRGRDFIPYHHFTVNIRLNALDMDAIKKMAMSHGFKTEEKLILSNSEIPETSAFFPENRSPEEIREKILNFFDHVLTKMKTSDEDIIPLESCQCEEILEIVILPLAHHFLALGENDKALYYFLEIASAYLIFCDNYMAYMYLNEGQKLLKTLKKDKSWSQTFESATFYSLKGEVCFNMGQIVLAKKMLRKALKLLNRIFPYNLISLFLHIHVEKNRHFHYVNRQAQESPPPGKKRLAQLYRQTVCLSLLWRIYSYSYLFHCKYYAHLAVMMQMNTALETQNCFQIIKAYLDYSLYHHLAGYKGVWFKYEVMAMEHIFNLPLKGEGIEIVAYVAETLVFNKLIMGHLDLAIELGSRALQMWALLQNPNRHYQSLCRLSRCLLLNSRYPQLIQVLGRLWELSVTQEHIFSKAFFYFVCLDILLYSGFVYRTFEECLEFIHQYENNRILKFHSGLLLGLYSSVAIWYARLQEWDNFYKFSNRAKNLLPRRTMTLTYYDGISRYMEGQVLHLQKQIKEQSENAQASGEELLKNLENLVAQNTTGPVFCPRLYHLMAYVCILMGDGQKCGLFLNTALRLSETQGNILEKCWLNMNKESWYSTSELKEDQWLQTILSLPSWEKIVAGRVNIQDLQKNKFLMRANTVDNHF
T1 sequence (P0DMV8 whole entry partner, the tested form may be a part, canonical isoform): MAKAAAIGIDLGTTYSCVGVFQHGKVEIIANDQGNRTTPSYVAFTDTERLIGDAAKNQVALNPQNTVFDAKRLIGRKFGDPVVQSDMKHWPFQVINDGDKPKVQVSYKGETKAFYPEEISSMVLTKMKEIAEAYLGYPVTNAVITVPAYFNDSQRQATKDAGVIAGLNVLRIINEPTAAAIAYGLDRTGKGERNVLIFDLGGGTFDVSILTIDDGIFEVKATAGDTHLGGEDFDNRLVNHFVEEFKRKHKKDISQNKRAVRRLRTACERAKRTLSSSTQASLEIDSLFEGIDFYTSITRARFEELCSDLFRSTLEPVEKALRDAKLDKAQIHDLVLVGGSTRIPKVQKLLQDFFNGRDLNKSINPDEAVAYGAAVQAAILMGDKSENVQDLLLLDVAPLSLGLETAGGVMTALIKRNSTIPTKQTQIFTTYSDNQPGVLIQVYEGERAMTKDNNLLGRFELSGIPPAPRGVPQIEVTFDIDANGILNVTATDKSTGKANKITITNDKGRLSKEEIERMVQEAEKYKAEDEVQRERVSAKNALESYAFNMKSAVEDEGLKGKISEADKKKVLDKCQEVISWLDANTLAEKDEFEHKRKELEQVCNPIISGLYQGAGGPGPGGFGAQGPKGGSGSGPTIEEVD
Nature of the test: In vitro adenylyl cyclase activity assay (two-column method), heterologously expressed human sACfl (GFP nanobody purified, complexed with Hsp70). The format is biochemical. As to conditions: for EC50: 2 mM ATP.

The next test addresses T2, mouse sACt (Mus musculus, UniProt Q8C0T9).
T2 construct: from tissue; host or cells: testes of homozygous double knock-in mice (Strep pulldown after FLAG depletion, eluted with biotin)
T2 sequence (Q8C0T9 1-471 isoform Q8C0T9-2): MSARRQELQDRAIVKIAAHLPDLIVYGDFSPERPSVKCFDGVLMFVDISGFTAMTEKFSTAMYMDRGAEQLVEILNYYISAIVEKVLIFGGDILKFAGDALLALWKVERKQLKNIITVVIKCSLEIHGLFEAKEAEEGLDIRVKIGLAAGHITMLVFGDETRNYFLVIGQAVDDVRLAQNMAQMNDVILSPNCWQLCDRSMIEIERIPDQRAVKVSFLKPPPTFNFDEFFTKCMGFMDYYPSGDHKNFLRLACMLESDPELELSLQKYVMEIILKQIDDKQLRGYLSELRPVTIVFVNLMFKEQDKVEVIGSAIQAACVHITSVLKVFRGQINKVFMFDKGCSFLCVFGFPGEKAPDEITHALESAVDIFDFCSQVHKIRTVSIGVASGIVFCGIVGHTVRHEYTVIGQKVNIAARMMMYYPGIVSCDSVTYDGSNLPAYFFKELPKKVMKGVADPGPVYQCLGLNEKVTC
Briefly: In vitro adenylyl cyclase activity assay (two-column method), endogenous mouse sACt (Strep). The format is biochemical. As to conditions: for EC50: 2 mM ATP. The text has this:
(§1) […]. To determine specific activities of endogenous mouse proteins, sACfl and sACt were quantitated by Western blot. For ATP kinetics, representative experiments are shown with SEM determined from normalized data.

A further test deals with T3, human sACt (Homo sapiens, UniProt Q96PN6).
T3 construct: sACt contains only the C1 and C2 catalytic domains; GST; made in house
T3 sequence (Q96PN6 1-469 limits assumed): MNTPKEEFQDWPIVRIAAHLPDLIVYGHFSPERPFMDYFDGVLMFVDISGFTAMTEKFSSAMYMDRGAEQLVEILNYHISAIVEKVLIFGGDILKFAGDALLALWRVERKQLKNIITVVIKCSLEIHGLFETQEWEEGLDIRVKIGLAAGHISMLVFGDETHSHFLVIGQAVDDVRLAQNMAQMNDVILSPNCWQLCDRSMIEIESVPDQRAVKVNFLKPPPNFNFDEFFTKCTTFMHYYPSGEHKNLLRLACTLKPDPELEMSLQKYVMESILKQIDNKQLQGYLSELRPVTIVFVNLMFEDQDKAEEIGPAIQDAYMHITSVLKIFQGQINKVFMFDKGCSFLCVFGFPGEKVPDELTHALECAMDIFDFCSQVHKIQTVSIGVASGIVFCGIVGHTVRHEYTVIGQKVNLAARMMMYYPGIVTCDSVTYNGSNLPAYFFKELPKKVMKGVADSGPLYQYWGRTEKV
Briefly: In vitro adenylyl cyclase activity assay (two-column method), heterologously expressed human sACt (GST). The format is biochemical. As to conditions: for EC50: 2 mM ATP.

The next test concerns the target T4, mouse sACfl (Mus musculus, UniProt Q8C0T9).
T4 construct: Schematic of full-length (sACfl) and truncated (sACt) sAC isoforms; from tissue; host or cells: testes of homozygous double knock-in mice (FLAG pulldown, eluted with 3xFLAG peptide)
Nature of the test: In vitro adenylyl cyclase activity assay (two-column method), endogenous mouse sACfl (FLAG). Format: biochemical. To be noted: for EC50: 2 mM ATP.
Excerpt: as §1

In another test the test system is sAC. Also noted: method as in PMID 24100033. As to conditions: read-out: KM of sAC's substrate ATP; cited from earlier work.
Test [2] addresses T5, mouse sAC isoforms (sACfl and sACt) (Mus musculus, UniProt Q8C0T9).
T5 sequence (Q8C0T9 1-469 limits assumed): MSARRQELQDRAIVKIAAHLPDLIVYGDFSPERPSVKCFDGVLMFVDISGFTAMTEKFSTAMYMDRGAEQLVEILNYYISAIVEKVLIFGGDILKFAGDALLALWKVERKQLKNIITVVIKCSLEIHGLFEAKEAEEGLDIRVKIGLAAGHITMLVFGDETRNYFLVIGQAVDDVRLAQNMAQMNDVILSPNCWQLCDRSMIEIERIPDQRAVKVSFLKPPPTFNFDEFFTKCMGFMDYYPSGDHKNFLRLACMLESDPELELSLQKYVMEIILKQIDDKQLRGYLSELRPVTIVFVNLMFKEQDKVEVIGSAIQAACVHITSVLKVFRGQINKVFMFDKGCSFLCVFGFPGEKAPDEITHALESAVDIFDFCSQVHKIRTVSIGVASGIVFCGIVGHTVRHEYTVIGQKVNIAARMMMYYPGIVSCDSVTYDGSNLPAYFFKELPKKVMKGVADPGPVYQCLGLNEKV
Nature of the test: In vitro adenylyl cyclase activity assay, one result stated for both mouse sAC isoforms. To be noted: read-out: IC50, mouse sAC; text summary (Fig. 5).

The mark [3] stands for this setting: 2 mM ATP, 10 mM MgCl2, 10 mM CaCl2, 40 mM NaHCO3.
Where [4] appears, read: in the presence of Mg^2+, Ca^2+ and HCO3^- (20-40 mM MgCl2, 10 mM CaCl2, 40 mM NaHCO3), read-out: KM for substrate Mg^2+-ATP.
Where [5] appears, read: 10 mM MgCl2, 40 mM NaHCO3, read-out: EC50 for Ca^2+.
[6] abbreviates: 10 mM MgCl2, 10 mM CaCl2, read-out: EC50 for HCO3^-.
Setting [7] is: 10 mM MgCl2, 10 mM CaCl2, 40 mM NaHCO3.

Each structure is given as a SMILES string. Read-outs that look alike come from different tables or passages of the source. A value given as a limit tells only on which side of the number the result lay.

T4 sequence (Q8C0T9 whole entry, the tested form may be a part, canonical isoform): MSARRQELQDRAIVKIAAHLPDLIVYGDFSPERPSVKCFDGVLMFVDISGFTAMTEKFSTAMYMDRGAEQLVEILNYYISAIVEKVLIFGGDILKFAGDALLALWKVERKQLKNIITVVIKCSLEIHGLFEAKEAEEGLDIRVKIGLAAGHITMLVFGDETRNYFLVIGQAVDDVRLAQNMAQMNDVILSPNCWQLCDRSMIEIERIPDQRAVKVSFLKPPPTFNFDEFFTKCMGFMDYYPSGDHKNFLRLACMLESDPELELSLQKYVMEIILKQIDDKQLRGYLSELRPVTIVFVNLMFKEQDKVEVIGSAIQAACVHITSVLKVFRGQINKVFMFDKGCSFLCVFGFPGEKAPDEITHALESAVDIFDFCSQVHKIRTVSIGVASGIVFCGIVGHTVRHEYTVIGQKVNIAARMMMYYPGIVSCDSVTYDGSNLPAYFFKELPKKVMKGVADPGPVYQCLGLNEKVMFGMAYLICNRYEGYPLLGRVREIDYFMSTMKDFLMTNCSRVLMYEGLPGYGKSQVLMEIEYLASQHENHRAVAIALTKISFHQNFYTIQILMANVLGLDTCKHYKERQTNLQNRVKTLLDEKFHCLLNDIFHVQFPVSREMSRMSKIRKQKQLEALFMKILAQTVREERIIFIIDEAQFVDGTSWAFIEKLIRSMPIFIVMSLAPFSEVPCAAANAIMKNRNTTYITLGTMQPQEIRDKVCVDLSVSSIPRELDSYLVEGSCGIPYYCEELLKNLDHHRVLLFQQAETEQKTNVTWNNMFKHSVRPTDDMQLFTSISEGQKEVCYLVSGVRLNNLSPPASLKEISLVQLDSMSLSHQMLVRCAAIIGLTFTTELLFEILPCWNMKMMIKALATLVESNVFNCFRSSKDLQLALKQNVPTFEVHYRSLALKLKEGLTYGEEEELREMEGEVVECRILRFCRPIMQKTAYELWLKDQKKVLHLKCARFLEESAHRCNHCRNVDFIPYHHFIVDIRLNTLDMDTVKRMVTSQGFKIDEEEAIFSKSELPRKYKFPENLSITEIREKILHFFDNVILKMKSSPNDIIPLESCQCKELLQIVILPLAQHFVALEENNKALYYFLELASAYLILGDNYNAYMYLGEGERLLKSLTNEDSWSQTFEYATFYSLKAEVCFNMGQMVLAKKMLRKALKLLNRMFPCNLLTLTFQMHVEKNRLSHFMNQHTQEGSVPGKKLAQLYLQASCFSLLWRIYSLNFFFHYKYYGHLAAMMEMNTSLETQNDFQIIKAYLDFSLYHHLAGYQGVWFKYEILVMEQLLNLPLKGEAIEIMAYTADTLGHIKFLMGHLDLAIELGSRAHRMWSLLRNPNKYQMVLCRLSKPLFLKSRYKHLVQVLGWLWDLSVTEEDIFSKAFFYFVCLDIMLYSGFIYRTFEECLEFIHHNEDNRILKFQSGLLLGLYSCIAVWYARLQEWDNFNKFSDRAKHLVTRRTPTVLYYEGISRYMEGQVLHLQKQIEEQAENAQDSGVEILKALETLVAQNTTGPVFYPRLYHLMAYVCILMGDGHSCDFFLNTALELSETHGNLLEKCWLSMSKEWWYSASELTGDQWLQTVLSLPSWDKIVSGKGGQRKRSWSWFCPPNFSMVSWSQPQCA

As to `Nc1ncnc2c1ncn2[C@@H]1O[C@H](COP(=O)(O)OP(=O)(O)O)[C@@H](O)[C@H]1O` [ADP], in test [1] (setting [3]), the “inhibition of cyclase activity at 10 mM” value was “∼75% inhibition at 10 mM”. Further, the “inhibition of cyclase activity (in words)” value (from here on “inhibition … (in words)”) in test [1] (at 10 mM) is recorded as “some inhibition”.

For `Nc1ncnc2c1ncn2[C@@H]1O[C@H](COP(=O)(O)O)[C@@H](O)[C@H]1O` [AMP], the “inhibition of cyclase activity at 10 mM” value in test [1] (setting [3]) was “No inhibition at 10 mM”. In test [1] (at concentrations up to 10 mM), the “inhibition … (in words)” value is given as “no inhibition”.

In the case of `Nc1ncnc2c1ncn2[C@@H]1O[C@H](COP(=O)(O)OP(=O)(O)OP(=O)(O)O)[C@@H](O)[C@H]1O` [ATP], the Km on human sACfl (setting [4]) is 2200 ± 300 µM; on mouse sACt (setting [4]), 2700 ± 250 µM; at human sACt (setting [4]) it was 1800 ± 280 µM; at mouse sACfl (setting [4]), 2200 ± 390 µM; with sAC it was roughly 2000 µM.

`Nc1ncnc2c1ncn2[C@@H]1O[C@H](CO)[C@@H](O)[C@H]1O` [Adenosine]: in test [1] (setting [3]), the “inhibition of cyclase activity at 10 mM” value is reported as greater than 50% inhibition at 10 mM. Also, the “inhibition … (in words)” value in test [1] (at 10 mM) is recorded as “some inhibition”.

Take `Nc1ccn([C@@H]2O[C@H](COP(=O)(O)OP(=O)(O)OP(=O)(O)O)[C@@H](O)[C@H]2O)c(=O)n1` [CTP]: the “inhibition of cyclase activity at 10 mM” value in test [1] (setting [3]) is reported as greater than 50% inhibition at 10 mM.

For the molecule `[Ca+2].[Cl-].[Cl-]` [Ca^2+], the EC50 at human sACfl (setting [5]) amounted to 1700 ± 150 µM; on mouse sACt (setting [5]) it was 1400 ± 110 µM; on human sACt (setting [5]) it was 1700 ± 160 µM; at mouse sACfl (setting [5]), 1300 ± 150 µM.

In the case of `Nc1nc2c(ncn2[C@@H]2O[C@H](COP(=O)(O)OP(=O)(O)O)[C@@H](O)[C@H]2O)c(=O)[nH]1` [GDP], the “inhibition of cyclase activity at 10 mM” value in test [1] (setting [3]) is listed as “∼75% inhibition at 10 mM”. Moreover, the “inhibition … (in words)” value in test [1] (at 10 mM) is “some inhibition”.

For the molecule `Nc1nc2c(ncn2[C@@H]2O[C@H](COP(=O)(O)O)[C@@H](O)[C@H]2O)c(=O)[nH]1` [GMP], the “inhibition of cyclase activity at 10 mM” value in test [1] (setting [3]) is on record as “No inhibition at 10 mM”. Further, in test [1] (at concentrations up to 10 mM), the “inhibition … (in words)” value is given as “no inhibition”.

Take `Nc1nc2c(ncn2[C@@H]2O[C@H](COP(=O)(O)OP(=O)(O)OP(=O)(O)O)[C@@H](O)[C@H]2O)c(=O)[nH]1` [GTP]: in test [1] (setting [3]), the “inhibition of cyclase activity at 10 mM” value was “∼50% inhibition at 10 mM”.

In the case of `O=C(O)O` [HCO3^–], the EC50 on human sACfl (setting [6]) was 14000 ± 1200 µM; at mouse sACt (setting [6]), 19000 ± 1600 µM; at human sACt (setting [6]), 14000 ± 1000 µM; at mouse sACfl (setting [6]) it was 21000 ± 1900 µM.

Consider `O=c1[nH]cnc2c1ncn2[C@@H]1O[C@H](COP(=O)(O)OP(=O)(O)OP(=O)(O)O)[C@@H](O)[C@H]1O` [ITP], for which the “inhibition of cyclase activity at 10 mM” value in test [1] (setting [3]) is on record as “∼50% inhibition at 10 mM”.

As for `O=P(O)(O)OP(=O)(O)O` [Pyrophosphate], in test [1] (1 mM test substance, 2 mM ATP, 10 mM MgCl2, 10 mM CaCl2, 40 mM NaHCO3), the “inhibition of cyclase activity at 1 mM” value is reported as roughly 25%. The “inhibition of cyclase activity at 10 mM” value in test [1] (setting [3]) was greater than 90%. Also, the “inhibition … (in words)” value is on record as “slight inhibition” in test [1] (at 1 mM) and “fully inhibited” in test [1] (at concentrations >10 mM).

In the case of `Nc1nc(Cl)cc(-c2nn(C(F)F)cc2Cc2ccccc2OCCN2CCOC[C@H]2CO)n1` [TDI-11861], the concentration for half-maximal inhibition (IC50) in test [2] is roughly 0.021 µM; against mouse sACt (setting [7]) it was 0.0211 ± 0.0045 µM; against mouse sACfl (setting [7]), 0.0224 ± 0.0093 µM.

In the case of `Cc1cn([C@H]2C[C@H](O)[C@@H](COP(=O)(O)OP(=O)(O)OP(=O)(O)O)O2)c(=O)[nH]c1=O` [TTP], the “inhibition of cyclase activity at 10 mM” value in test [1] (setting [3]) is reported as “∼50% inhibition at 10 mM”.

For the molecule `O=c1ccn([C@@H]2O[C@H](COP(=O)(O)OP(=O)(O)OP(=O)(O)O)[C@@H](O)[C@H]2O)c(=O)[nH]1` [UTP], in test [1] (setting [3]), the “inhibition of cyclase activity at 10 mM” value is “∼50% inhibition at 10 mM”.

What is called Km is the concentration of substrate that gives half-maximal velocity. For orientation: EC50 means the concentration that produces a half-maximal response. Usually IC50 stands for the concentration at which inhibition is half-maximal.
